Common to all, as to assay type: cell-based
Assay [1] relates to MYB mRNA. Kind of assay: Gene panel canonical junction qPCR assay, decrease in CJ mRNA, Table 3. The conditions noted are these: decrease in canonical junction (CJ) mRNA, gene panel qPCR, Table 3. How it is done: (§1) Compounds described herein were used to modulate RNA transcript abundance in cells. The expression of a target mRNA was measured by detecting the formation of an exon-exon junction in the canonical transcript (CJ). A compound mediated exon-inclusion event was detected by observing an increase in formation of a new junction with an alternative exon (AJ). Real-time qPCR assays were used to detect these splicing switches and interrogate the potency of various compounds towards different target genes. A high-throughput real time quantitative PCR (RT-qPCR) assay was developed to measure these two isoforms of the mRNA (CJ and AJ) for exemplary genes, such as HTT, SMN2, and MYB, together with a control housekeeping gene, GAPDH or GUSB or PPIA, used for normalization. Briefly, the A673 or K562 cell line was treated with various compounds described herein (e.g., compounds of Formula (I)). After treatment, the levels of the HTT, MYB, or SMN2 mRNA targets were determined from each sample of cell lysate by cDNA synthesis followed by qPCR.
(§2) The A673 cell line was cultured in DMEM with 10% FBS. Cells were diluted with full growth media and plated in a 96-well plate (15,000 cells in 100 ul media per well). The plate was incubated at 37° C. with 5% CO2 for 24 hours to allow cells to adhere. An 11-point 3-fold serial dilution of the compounds was made in DMSO then diluted in media in an intermediate plate. Compounds were transferred from the intermediate plate to the cell plate with the top dose at a final concentration of 10 uM in the well. Final DMSO concentration was kept at or below 0.25%. The cell plate was returned to the incubator at 37° C. with 5% CO2 for an additional 24 hours.
(§3) The K562 cell line was cultured in IMDM with 10% FBS. For K562, cells were diluted with full growth media and plated in either a 96-well plate (50,000 cells in 50 uL media per well) or a 384-well plate (8,000-40,000 cells in 45 uL media per well). An 11-point 3-fold serial dilution of the compounds were made in DMSO then diluted in media in an intermediate plate. Compound was transferred from the intermediate plate to the cell plate with the top dose at a final concentration of 10 uM in the well. Final DMSO concentration was kept at or below 0.25%. Final volume was 100 uL for 96-well plate and 50 uL for 384-well plate. The cell plate was then placed in an incubator at 37° C. with 5% CO2 for 24 hours.
(§4) The data analysis was performed by first determining the ΔCt vs the housekeeper gene. This ΔCt was then normalized against the DMSO control (ΔΔCt) and converted to RQ (relative quantification) using the 2^(−ΔΔCt) equation. The RQ were then converted to a percentage response by arbitrarily setting an assay window of 3.5 and 4.0 ΔCt for HTT-CJ and MYB-CJ respectively and an assay window of 9 and 3 ΔCt for HTT-AJ and MYB-AJ in 96 well format (50,000 K562 cells/well and 15,000 A673 cells per well) and an assay window of 3 and 4 ΔCt for HTT-CJ and MYB-CJ respectively and an assay window of 5 and 3 ΔCt for HTT-AJ and MYB-AJ respectively in 384 well format (8,000 K562 cells/well example). […] The percentage response was then fitted to the 4 parametric logistic equation to evaluate the concentration dependence of compound treatment. The increase in AJ mRNA is reported as AC50 (compound concentration having 50% response in AJ increase) while the decrease in CJ mRNA levels is reported as IC50 (compound concentration having 50% response in CJ decrease).
(§5) Additional studies were carried out for a larger panel of genes using the protocol provided above. The junction between flanking upstream and downstream exons was used to design canonical junction qPCR assays. At least one of the forward primer, reverse primer or the CY5-labeled 5′ nuclease probe (with 3′ quencher such as ZEN/Iowa Black FQ) was designed to overlap with the exon junction to capture the CJ mRNA transcript. […]
A general note: Real-time PCR tracks product formation cycle by cycle.

The test system of assay [2] is HTT mRNA. The assay is described as above. The conditions noted are these: decrease in canonical junction (CJ) mRNA, gene panel qPCR, Table 3. Here is the method:
as §1, §2, §3, §4, §5

For assay [3], the system named is SH-SY5Y (human neuroblastoma) cells. Briefly: Cell viability, Cell Titer Glo 2.0 assay. The conditions noted are these: read-out: Viability SHSY5Y.3 GI50. How it is done: Compounds described herein were screened for toxicity in K562 (human chronic myelogenous leukemia) and SH-SY5Y (human neuroblastoma) cells using a Cell Titer Glo 2.0 assay.
• Promega CellTiter-Glo® 2.0 Cell Viability Assay (cat #G9241) • Corning 384-well TC-treated microplates (cat #3570)
Cells were plated at 500 cells/well (K562 cells) in 45 μL of IMDM supplemented with 10% FBS in a 384-well opaque plate. Wells containing only medium were used as a blank control. Test compounds (e.g., compounds of Formula (I) or (II) were first serially diluted in DMSO then diluted 1:100 with IMDM+10% FBS. The final concentration of DMSO was 0.1% in each well. The cells were incubated for 72 hours at 37° C. and 5% CO2 before assaying with Cell Titer Glo 2.0 reagent.

The subject of assay [4] is MYB mRNA. Kind of assay: Splicing RT-qPCR assay (THP), Table 2A. Particulars: Table 2A (THP); for AC50: AJ mRNA increase, read-out: MYB AJ (increase in alternative junction mRNA, AC50); for IC50: CJ mRNA decrease, read-out: MYB CJ (decrease in canonical junction mRNA, IC50).
For assay [5], the system named is HTT mRNA. Kind of assay: Splicing RT-qPCR assay (THP), Table 2A. Particulars: Table 2A (THP); for AC50: AJ mRNA increase, read-out: HTT AJ (increase in alternative junction mRNA, AC50); for IC50: CJ mRNA decrease, read-out: HTT CJ (decrease in canonical junction mRNA, IC50).

Bounds are passed on as bounds.

For orientation: IC50 means the midpoint of a concentration-inhibition curve. As a reminder, the GI50 is the concentration that inhibits growth by half. In general, AC50 refers to the concentration giving half of the maximal activity seen.

With `CCNC1CCN(c2ccc(C(=O)Nc3cc(C(=O)NC)c4nc(C)cn4c3)c3nn(C)cc23)CC1` [Compound 319, 4-(4-(ethylamino)-piperidin-1-yl)-2-methyl-N-(2-methyl-8-(methylcarbamoyl)-imidazo[1,2-a]-pyridin-6-yl)-2H-indazole-7-carboxamide 2,2,2-trifluoroacetate], the concentration for half-maximal inhibition (IC50) with MYB mRNA [1], with HTT mRNA [2], with MYB mRNA [4] and with HTT mRNA [5] was greater than 10000 nM each time. Further, the GI50 in assay [3] was greater than 10000 nM. For the same compound, the half-maximal activity concentration (AC50) with MYB mRNA [4] and with HTT mRNA [5] was greater than 10000 nM each time.

On to `COc1c(NC(=O)c2c(F)cc(N3CCC(NC4CC4)CC3)c3cn(C)nc23)cn2cc(C)nc2c1C#N` [Compound 320, N-(8-cyano-7-methoxy-2-methyl-imidazo[1,2-a]pyridin-6-yl)-4-[4-(cyclopropylamino)-1-piperidyl]-6-fluoro-2-methyl-indazole-7-carboxamide], for which the IC50 with MYB mRNA [1], with HTT mRNA [2], in the assay with MYB mRNA [4] and with HTT mRNA [5] was 100 to 1000 nM throughout. In addition, the GI50 in assay [3] lay in the range of 100 to 1000 nM. The AC50 with MYB mRNA [4] and with HTT mRNA [5] was 100 to 1000 nM in each case.

Take `Cc1cn2cc(NC(=O)c3c(F)cc(N4CCC(NC5CC5)CC4)c4cn(C)nc34)c(OCC3CC3)c(F)c2n1` [Compound 321, 4-[4-(cyclopropylamino)-1-piperidyl]-N-[7-(cyclopropylmethoxy)-8-fluoro-2-methyl-imidazo[1,2-a]-pyridin-6-yl]-6-fluoro-2-methyl-indazole-7-carboxamide]: the IC50 in the assay with MYB mRNA [1] was less than 100 nM; with HTT mRNA [2], 100 to 1000 nM; with MYB mRNA [4], less than 100 nM; in the assay with HTT mRNA [5], 100 to 1000 nM. In assay [3], the concentration for 50% growth inhibition (GI50) is less than 100 nM. Further, the AC50 in the assay with MYB mRNA [4] and with HTT mRNA [5] was less than 100 nM throughout.

In the case of `Cc1cn2cc(NC(=O)c3ccc(N4CCC(NC5CC5)CC4)c4cn(C)nc34)cc(Oc3ccnnc3)c2n1` [Compound 322, 4-[4-(cyclopropyl-amino)-1-piperidyl]-2-methyl-N-(2-methyl-8-pyridazin-4-yloxy-imidazo[1,2-a]-pyridin-6-yl)-indazole-7-carboxamide], the half-inhibitory concentration (IC50) in the assay with MYB mRNA [1], in the assay on HTT mRNA [2], with MYB mRNA [4] and with HTT mRNA [5] was 1000 to 10000 nM in each case. Also, in assay [3], the GI50 is 1000 to 10000 nM. The AC50 in the assay on MYB mRNA [4] and in the assay on HTT mRNA [5] was 1000 to 10000 nM in each case.

Take `CCNC1CCN(c2ccc(C(=O)Nc3cn4cc(C)nc4cc3OC)c3nn(C)cc23)CC1` [Compound 323, 4-[4-(ethylamino)-1-piperidyl]-N-(7-methoxy-2-methyl-imidazo[1,2-a]-pyridin-6-yl)-2-methyl-indazole-7-carboxamide 2,2,2-trifluoroacetate]: the IC50 with MYB mRNA [1] was in the range of 100 to 1000 nM; in the assay with HTT mRNA [2] it was 1000 to 10000 nM; with MYB mRNA [4] it was 100 to 1000 nM; with HTT mRNA [5], 1000 to 10000 nM. For the same compound, the GI50 in assay [3] lay within 1000 to 10000 nM. For the same compound, the figures for the AC50 with MYB mRNA [4] and in the assay with HTT mRNA [5] were 100 to 1000 nM and 1000 to 10000 nM, respectively.

With `CCNC1CCN(c2ccc(C(=O)Nc3cc(OCc4ccccc4)c4nc(C)cn4c3)c3nn(C)cc23)CC1` [Compound 324, N-(8-benzyloxy-2-methylimidazo[1,2-a]pyridin-6-yl)-4-[4-(ethylamino)-1-piperidyl]-2-methyl-indazole-7-carboxamide], the half-maximal inhibitory concentration (IC50) is 1000 to 10000 nM in the assay on MYB mRNA [1], greater than 10000 nM with HTT mRNA [2], 1000 to 10000 nM in the assay with MYB mRNA [4] and greater than 10000 nM in the assay on HTT mRNA [5]. In assay [3], the GI50 is 1000 to 10000 nM. The values for the AC50 in the assay on MYB mRNA [4] and in the assay on HTT mRNA [5] were 100 to 1000 nM and greater than 10000 nM, respectively.

Consider `CCNC1CCN(c2ccc(C(=O)Nc3cc(Oc4ccc(Cl)cc4)c4nc(C)cn4c3)c3nn(C)cc23)CC1` [Compound 325, N-[8-(4-chloro-phenoxy)-2-methylimidazo[1,2-a]-pyridin-6-yl]-4-[4-(ethylamino)-1-piperidyl]-2-methyl-indazole-7-carboxamide], for which the IC50 fell in the range of 100 to 1000 nM in the assay on MYB mRNA [1], 1000 to 10000 nM with HTT mRNA [2], 100 to 1000 nM with MYB mRNA [4] and 1000 to 10000 nM in the assay with HTT mRNA [5]. Further, in assay [3], the GI50 is 100 to 1000 nM. In addition, the half-maximal activity concentration (AC50) was less than 100 nM in the assay with MYB mRNA [4] and 1000 to 10000 nM with HTT mRNA [5].

Take `CCNC1CCN(c2ccc(C(=O)Nc3cc(Oc4cccc(C#N)c4)c4nc(C)cn4c3)c3nn(C)cc23)CC1` [Compound 326, N-[8-(3-cyano-phenoxy)-2-methylimidazo[1,2-a]pyridin-6-yl]-4-[4-(ethylamino)-1-piperidyl]-2-methyl-indazole-7-carboxamide]: the concentration for half-maximal inhibition (IC50) in the assay with MYB mRNA [1] fell in the range of 100 to 1000 nM; in the assay with HTT mRNA [2], 1000 to 10000 nM; with MYB mRNA [4] it was 100 to 1000 nM; in the assay with HTT mRNA [5], 1000 to 10000 nM. Also, in assay [3], the GI50 lay within 1000 to 10000 nM. The figures for the half-maximal activity concentration (AC50) in the assay with MYB mRNA [4] and in the assay on HTT mRNA [5] were 100 to 1000 nM and 1000 to 10000 nM, respectively.

For the compound `CCNC1CCN(c2ccc(C(=O)Nc3cc(Oc4cccc(C)c4)c4nc(C)cn4c3)c3nn(C)cc23)CC1` [Compound 327, 4-[4-(ethylamino)-1-piperidyl]-2-methyl-N-[2-methyl-8-(3-methylphenoxy)imidazo[1,2-a]pyridin-6-yl]indazole-7-carboxamide], the half-maximal inhibitory concentration (IC50) with MYB mRNA [1] lay in the range of 100 to 1000 nM; in the assay on HTT mRNA [2], 1000 to 10000 nM; in the assay with MYB mRNA [4], 100 to 1000 nM; in the assay with HTT mRNA [5] it was 1000 to 10000 nM. In assay [3], the GI50 was in the range of 100 to 1000 nM. The half-maximal activity concentration (AC50) was less than 100 nM in the assay on MYB mRNA [4] and 1000 to 10000 nM in the assay on HTT mRNA [5].

As for `CCNC1CCN(c2ccc(C(=O)Nc3cc(Oc4ccc(C)cc4)c4nc(C)cn4c3)c3nn(C)cc23)CC1` [Compound 328, 4-(4-(ethylamino)-piperidin-1-yl)-2-methyl-N-(2-methyl-8-(p-tolyloxy)-imidazo[1,2-a]pyridin-6-yl)-2H-indazole-7-carboxamide 2,2,2-trifluoroacetate], the IC50 in the assay on MYB mRNA [1] was less than 100 nM; with HTT mRNA [2], 100 to 1000 nM; in the assay with MYB mRNA [4], less than 100 nM; with HTT mRNA [5], 100 to 1000 nM. In addition, the GI50 in assay [3] was 100 to 1000 nM. Also, the values for the concentration at half-maximal activity (AC50) with MYB mRNA [4] and with HTT mRNA [5] were less than 100 nM and 100 to 1000 nM, respectively.

(Values after patent US20260285853A1, “COMPOUNDS AND METHODS FOR MODULATING SPLICING” (REMIX THERAPEUTICS INC., priority 2023, published 2026).)
